Values joined by “and” are separate entries in the source; they are usually repeats but may differ in a detail not shown here. Identical values can stand only once. Like-named read-outs stand apart in the source and are kept apart here. Each block holds one compound with its values, some of them ahead of it.
Key:
[1] = molecular target: T1, human TrkA (Homo sapiens, UniProt P04629); experiment: Inhibition of NGF-induced beta-lactamase activity in TrkA-NFAT-bla CHO-K1 cells; type: cell-based
T1 construct: Full length human TRKA, TRKB and TRKC cDNAs were synthesized by Blue Heron Biotechnology; expressed in transfected cells

[2] = molecular target: T2, human TrkB (Homo sapiens, UniProt Q16620); experiment: Inhibition of BDNF-induced beta-lactamase activity in TrkB-NFAT-bla CHO-K1 cells; type: cell-based
T2 construct: Full length human TRKA, TRKB and TRKC cDNAs were synthesized by Blue Heron Biotechnology; expressed in transfected cells

[3] = molecular target: T3, human TrkC (Homo sapiens, UniProt Q16288); experiment: Inhibition of NT-3-induced beta-lactamase activity in TrkC-NFAT-bla CHO-K1 cells; type: cell-based
T3 construct: Full length human TRKA, TRKB and TRKC cDNAs were synthesized by Blue Heron Biotechnology; expressed in transfected cells
Description: (§1) Cells in a sub-confluency state (or cryopreserved cells) were resuspended in Assay Medium (DMEM with GlutaMAX™ (Invitrogen, catalog number 10569) supplemented with 0.1% dialyzed FBS, 0.1 mM NEAA, 25 mM HEPES, 100 U/mL Penicillin and 100 µg/mL Streptomycin) and plated in a 384-well assay plate (Corning, Lowell, MA, catalog number 3712) at 10,000 cells (32 μL) per well. 32 μL of Assay Medium without cells were plated in Cell-free Control wells on the same plate. 4 µL 1% DMSO was added to each well to reach final DMSO concentration of 0.1% to mimic the screening situation where compounds dissolved in DMSO are added to test wells. Cells were then stimulated with 4 µL/well 10 x ligands (NGF, BDNF, NT-4 (Invitrogen, catalog number PHC7024), NT-3 or Thapsigargin (Sigma, St. Louis, MO)) over the indicated concentration range (1 pM ~ 50000 pM) for 5 hours before adding 8 µL/well 6X LiveBLAzer™-FRET B/G Substrate mixture (Invitrogen, catalog number K1096) for 2 hours. Fluorescence intensity at excitation 406 nm and emission 460 nm and 530 nm were obtained using Tecan Safire^2 fluorescence plate reader (Tecan, Durham, NC) (Table 1). After subtracting the average fluorescence intensity from the Cell-free Control wells, the 460nm/530nm emission ratio was calculated. Response Ratio is a measurement of the assay window and is calculated as the 460nm/530nm Emission Ratio of the stimulated wells divided by the 460nm/530nm Emission Ratio of the unstimulated wells. Response Ratios were plotted against test ligand concentrations in log scale and then analyzed using Prism software (GraphPad Software, Inc. San Diego, CA). Sigmoidal dose-response equation with varying slope was used to fit the data and generate EC50 values. Z’-factor values were calculated as: Z’-factor = 1 - [(3 x stdevunstim + 3 x stdevmaxstim) / (avgmaxstim – avgunstim)].

[4] = system: Thapsigargin-induced NFAT reporter activity, TrkA-NFAT-bla CHO-K1 cells; experiment: Inhibition of Thapsigargin-induced NFAT reporter activity in TrkA-NFAT-bla CHO-K1 cells; type: cell-based; conditions: for IC50: TrkA cells, Thapsigargin 8 nM, 5 h, * values may not be accurate, curves did not reach saturation, read-out: IC50, TrkA, Thaps
Description: as §1
(§2) Cells were then stimulated with 4 µL of neurotrophins at 10 x EC80 concentrations (EC80 concentrations are: NGF, 0.77 nM; BDNF, 1 nM; NT-3, 0.72 nM; Thapsigargin, 8 nM) for 5 hours before beta-lactamase assay was performed as described above.

[5] = system: Thapsigargin-induced NFAT reporter activity, TrkB-NFAT-bla CHO-K1 cells; experiment: Inhibition of Thapsigargin-induced NFAT reporter activity in TrkB-NFAT-bla CHO-K1 cells; type: cell-based; conditions: for IC50: TrkB cells, Thapsigargin 8 nM, 5 h, * values may not be accurate, curves did not reach saturation, read-out: IC50, TrkB, Thaps
Description: as §1, §2

[6] = system: Thapsigargin-induced NFAT reporter activity, TrkC-NFAT-bla CHO-K1 cells; experiment: Inhibition of Thapsigargin-induced NFAT reporter activity in TrkC-NFAT-bla CHO-K1 cells; type: cell-based; conditions: for IC50: TrkC cells, Thapsigargin 8 nM, 5 h, * values may not be accurate, curves did not reach saturation, read-out: IC50, TrkC, Thaps
Description: as §1, §2

[7] = system: TrkA; design: method as in PMID 7683492; conditions: cited from earlier work
[8] = system: NFAT-bla reporter, Trk-NFAT-bla CHO-K1 cells; experiment: Thapsigargin stimulation of Trk-NFAT-bla CHO-K1 cell lines; type: cell-based; conditions: used for stimulation in inhibitor assay
Description: as §1, with “Cells were then stimulated with 4 µL/well 10 x ligands (NGF, BDNF, NT-4 (Invitrogen, catalog number PHC7024), NT-3 or Thapsigargin (Sigma, St. Louis, MO)) over the indicated concentration range (1 pM ~ 50000 pM) for 5 hours before adding 8 µL/well 6X LiveBLAzer™-FRET B/G Substrate mixture (Invitrogen, catalog number K1096) for 2 hours.” left out, “Sigmoidal dose-response equation with varying slope was used to fit the data and generate EC50 values. Z’-factor values were calculated as: Z’-factor = 1 - [(3 x stdevunstim + 3 x stdevmaxstim) / (avgmaxstim – avgunstim)].” left out

[9] = molecular target: T1, human TrkA; experiment: Neurotrophin dose response, beta-lactamase reporter assay in TrkA-NFAT-bla CHO-K1 cells; type: cell-based
From the text: (§3) NFAT beta-lactamase reporter line NFAT-bla CHO-K1 cells (Invitrogen, Carlsbad, CA, catalog number K1078) were transfected using Lipofectamine™ LTX transfection reagent (Invitrogen, Carlsbad, CA) with pcDNA6-TRKA, pcDNA6-TRKB and pcDNA6-TRKC and selected for blasticidin-resistance. Blasticidin-resistant TrkA transfected cells were stimulated with NGF (Invitrogen, catalog number 13257-019), TrkB transfected cells with BDNF (Invitrogen, catalog number PHC7074) and TrkC transfected cells with NT-3 (Invitrogen, catalog number PHC7034) for 5 hours before neurotrophin stimulated beta-lactamase expressing cells were collected by FACS as single cells onto 96-well plates. The survived clones that responded to the respective ligand were selected and expanded. The clone with the best response to each ligand was further tested in a 384-well format for the dose response of neurotrophins and inhibitors and in a 96-well format for RNAi knock-down.
as §1

[10] = molecular target: T2, human TrkB; experiment: Neurotrophin dose response, beta-lactamase reporter assay in TrkB-NFAT-bla CHO-K1 cells; type: cell-based
From the text: as §3, §1

[11] = molecular target: T3, human TrkC; experiment: Neurotrophin dose response, beta-lactamase reporter assay in TrkC-NFAT-bla CHO-K1 cells; type: cell-based
From the text: as §3, §1

[12] = 30 min pretreatment, BDNF at EC80 1 nM, 5 h, read-out: IC50, TrkB, BDNF
[13] = 30 min pretreatment, NT-3 at EC80 0.72 nM, 5 h, read-out: IC50, TrkC, NT-3
[14] = at the highest concentration tested
[15] = 460nm/530nm ratio stimulated vs unstimulated
[16] = 5 h stimulation, 0.1% DMSO, * values may not be accurate, curves did not reach saturation

T2 sequence (Q16620 32-838 isoform Q16620-4 limits assumed): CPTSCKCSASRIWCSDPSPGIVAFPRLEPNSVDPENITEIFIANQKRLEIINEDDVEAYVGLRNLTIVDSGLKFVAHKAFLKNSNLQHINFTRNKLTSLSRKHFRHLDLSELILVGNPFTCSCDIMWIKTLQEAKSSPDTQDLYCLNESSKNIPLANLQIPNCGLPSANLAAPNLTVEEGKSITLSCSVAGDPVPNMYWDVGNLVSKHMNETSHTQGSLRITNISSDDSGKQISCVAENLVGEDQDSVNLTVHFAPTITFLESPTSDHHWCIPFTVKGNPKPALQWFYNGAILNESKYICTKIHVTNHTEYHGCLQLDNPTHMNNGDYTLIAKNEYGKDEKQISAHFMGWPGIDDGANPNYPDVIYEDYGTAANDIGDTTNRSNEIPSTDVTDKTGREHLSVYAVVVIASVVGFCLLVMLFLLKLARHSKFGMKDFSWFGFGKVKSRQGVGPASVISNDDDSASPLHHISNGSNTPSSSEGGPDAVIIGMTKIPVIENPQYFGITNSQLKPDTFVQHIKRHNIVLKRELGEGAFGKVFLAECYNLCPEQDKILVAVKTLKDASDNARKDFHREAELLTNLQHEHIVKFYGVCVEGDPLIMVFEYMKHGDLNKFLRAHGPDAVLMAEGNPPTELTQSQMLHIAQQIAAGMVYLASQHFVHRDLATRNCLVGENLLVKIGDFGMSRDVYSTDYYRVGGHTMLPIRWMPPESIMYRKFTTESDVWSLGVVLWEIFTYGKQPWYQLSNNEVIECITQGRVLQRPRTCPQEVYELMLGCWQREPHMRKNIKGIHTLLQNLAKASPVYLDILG
T1 sequence (P04629 33-796): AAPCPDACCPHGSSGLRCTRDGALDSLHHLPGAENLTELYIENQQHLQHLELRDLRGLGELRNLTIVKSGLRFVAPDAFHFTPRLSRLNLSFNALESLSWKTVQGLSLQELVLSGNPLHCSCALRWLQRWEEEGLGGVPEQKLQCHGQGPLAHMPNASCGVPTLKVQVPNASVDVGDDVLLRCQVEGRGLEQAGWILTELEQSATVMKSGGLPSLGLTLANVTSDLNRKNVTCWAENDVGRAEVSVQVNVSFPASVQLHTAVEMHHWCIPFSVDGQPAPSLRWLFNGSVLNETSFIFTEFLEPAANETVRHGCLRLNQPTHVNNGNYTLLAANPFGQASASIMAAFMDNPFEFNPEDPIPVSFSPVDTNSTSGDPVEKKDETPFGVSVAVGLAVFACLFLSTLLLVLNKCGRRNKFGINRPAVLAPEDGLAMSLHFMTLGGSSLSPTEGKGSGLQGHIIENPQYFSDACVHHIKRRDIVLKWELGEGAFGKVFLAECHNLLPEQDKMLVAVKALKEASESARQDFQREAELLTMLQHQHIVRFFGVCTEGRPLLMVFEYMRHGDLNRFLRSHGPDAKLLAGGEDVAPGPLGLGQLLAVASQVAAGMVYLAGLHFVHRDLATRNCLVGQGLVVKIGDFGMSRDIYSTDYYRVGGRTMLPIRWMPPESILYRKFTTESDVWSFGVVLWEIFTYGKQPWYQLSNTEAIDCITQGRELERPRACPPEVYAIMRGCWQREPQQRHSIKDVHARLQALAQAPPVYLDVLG
T3 sequence (Q16288 32-825 isoform Q16288-3 limits assumed): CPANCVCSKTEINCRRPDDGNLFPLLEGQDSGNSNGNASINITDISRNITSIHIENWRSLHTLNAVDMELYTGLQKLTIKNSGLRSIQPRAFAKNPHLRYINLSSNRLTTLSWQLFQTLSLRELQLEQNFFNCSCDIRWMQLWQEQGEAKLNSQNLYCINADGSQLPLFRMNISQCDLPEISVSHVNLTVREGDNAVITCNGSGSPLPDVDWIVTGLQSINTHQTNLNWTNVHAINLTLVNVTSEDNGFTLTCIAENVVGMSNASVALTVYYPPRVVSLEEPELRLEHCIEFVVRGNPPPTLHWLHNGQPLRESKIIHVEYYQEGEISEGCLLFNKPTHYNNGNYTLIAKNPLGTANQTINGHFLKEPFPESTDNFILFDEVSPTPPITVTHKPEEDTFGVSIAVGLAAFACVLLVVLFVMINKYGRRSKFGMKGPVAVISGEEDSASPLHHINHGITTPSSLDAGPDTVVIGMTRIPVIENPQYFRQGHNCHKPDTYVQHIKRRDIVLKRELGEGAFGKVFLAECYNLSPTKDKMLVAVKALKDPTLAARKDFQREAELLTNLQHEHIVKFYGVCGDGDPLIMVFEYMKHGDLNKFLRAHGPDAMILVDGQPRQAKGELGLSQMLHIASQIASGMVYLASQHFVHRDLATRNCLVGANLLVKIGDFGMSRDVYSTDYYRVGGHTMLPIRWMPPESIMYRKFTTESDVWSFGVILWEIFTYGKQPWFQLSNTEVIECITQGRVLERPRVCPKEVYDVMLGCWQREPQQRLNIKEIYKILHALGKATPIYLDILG

IC50 ([1]; 30 min pretreatment, NGF at EC80 0.77 nM, 5 h, read-out: IC50, TrkA, NGF): 1330 nM
IC50 ([1]; NGF-induced, read-out: IC50, TrkA-mediated NFAT-bla reporter activity): ~1000 nM
IC50 [2, 12]: 1010 nM
IC50 ([2]; BDNF-induced, read-out: IC50, TrkB-mediated NFAT-bla reporter activity): ~1000 nM
IC50 [3, 13]: 1310 nM
IC50 ([3]; NT-3-induced, read-out: IC50, TrkC-mediated NFAT-bla reporter activity): ~1000 nM
Compound: CC(C)(C)c1cc(/C=C(\C#N)C(N)=S)cc(C(C)(C)C)c1O [AG879]
IC50 [4]: 112 nM
IC50 [5]: 51 nM
IC50 [6]: 231 nM
concentrations inhibiting NGF induced TrkA autophosphorylation and PLC-γ phosphorylation [7]: micro-molar concentrations

Compound: Cn1cc(/C=C2\C(=O)Nc3cccnc32)c2ccccc21 [GW441756]
IC50 [4]: 2830 nM
IC50 [5]: 8200 nM
IC50 [6]: 8970 nM

Compound: COC(=O)[C@@]1(O)C[C@H]2O[C@]1(C)n1c3ccccc3c3c4c(c5c6ccccc6n2c5c31)C(=O)NC4 [K252a]
IC50 in words, BDNF-induced beta-lactamase activity in TrkB cells [2]: low nano-molar
IC50 [2, 12]: 11 nM
IC50 in words, NT-3-induced beta-lactamase activity in TrkC cells [3]: low nano-molar
IC50 [3, 13]: 30 nM
IC50 [4]: 570 nM
effect on Thapsigargin induced reporter activity, TrkA cells (in words) [4, 14]: partial inhibitory effect
IC50 [5]: > 1000 nM
effect on Thapsigargin induced reporter activity, TrkB cells (in words) [5, 14]: partial inhibitory effect
IC50 [6]: 500 nM
effect on Thapsigargin induced reporter activity, TrkC cells (in words) [6, 14]: partial inhibitory effect

Compound: C/C=C(/C)C(=O)O[C@H]1C(C)=C2[C@H]([C@@H]1OC(=O)CCCCCCC)[C@@](C)(OC(C)=O)C[C@H](OC(=O)CCC)[C@@]1(O)[C@H]2OC(=O)[C@@]1(C)O [Thapsigargin]
EC80 concentration, Thapsigargin [8]: 8 nM

maximum response ratio / response over baseline, TrkA-NFAT-bla CHO-K1 [9, 15]: 3 fold
EC50 [9, 16]: ~16 nM and 16 nM
maximum response ratio, TrkB-NFAT-bla CHO-K1 [10, 15]: 13
EC50 ([10]; 5 h stimulation, 0.1% DMSO): 2.5 nM
maximum response ratio, TrkC-NFAT-bla CHO-K1 [11, 15]: 8.5
EC50 [11, 16]: 0.093 nM and 0.09 nM
EC80 concentration, TrkC cells ([11]; used for stimulation in inhibitor assay): 0.72 nM
Compound: NT-3: neurotrophin 3, preferred ligand of TrkC
